The values that follow are results of earlier work, collected in patent US9750812B2, “Lipid based pharmaceutical preparations for oral and topical application; their compositions, methods, and uses thereof” (JINA PHARMACEUTICALS, INC., priority 2008, dated 2017).

In the case of `CC(C)(C)NC(=O)[C@H]1CC[C@H]2[C@@H]3CC[C@H]4NC(=O)C=C[C@]4(C)[C@H]3CC[C@]12C` [finasteride, (5α, 17β)-N-(1,1-dimethylethyl)-3-oxo-4-azaandrost-1-ene-17-carboxamide], the “solubility in organic solvents” value (organic solvents such as ethanol and methanol) is “soluble”. For the same compound, the solubility in water result (water) was “practically insoluble”.
